Laboratory results: patent publication US3982012A, “4-Hydroxy-benzimidazole compounds and therapeutic compositions” (Boehringer Mannheim G.m.b.H., priority 1974, dated 1976)

Experiments:
cardiac β-receptor = cardiac β-receptor blocking activity: inhibition of isoprenalin tachycardia in wake rabbits; details: for LD50/DE250: ratio of mouse i.v. LD50 to rabbit i.v. DE250 (therapeutic breadth); for Heartbeat Frequency x ± sx / DE250: wake rabbits; for Heartbeat Frequency x ± sx: 30 min later isoprenalin i.v.; for DE250: interpolated dosage which limits the frequency increase to 250 beats/min
Method: (§1) The following tests were carried out to determine (a) the toxicity and (b) the cardiac β-receptor blocking activity of certain test compounds by determining the inhibition of the heart beat frequency increase induced by intravenous administration of isoprenalin.
b. The β-receptor blocking activity of the test compounds was tested on wake rabbits weighing between 2 to 3.5 kg. and kept in wooden cages. EKG-electrodes were inserted into the hind quarters of the rabbits s.c. (II. lead) and the heart frequency was measured using an integrator (15 seconds) as a digital value. The test compounds were then infused through a small tube to the ear vein of the rabbits over a period of 15 minutes. 30 Minutes after the infusion isoprenalin (3,4-dihydroxy-α-[(isopropylamino)-methyl]-benzylalcohol) was injected intravenously at […].

in vivo = details: iv, mouse, i.v. (tail vein), five male and five female mice per dosage, read-out: Acute Toxicity LD50 Mouse
Method: as §1
a. […] The compounds, in dissolved form, were injected into the tail vein of five male and five female mice each in increasing dosages. The results (% of animals which died) were used, via programmed probability analysis, to determine the median lethal dosage (LD50).

Row | SMILES | LD50/DE250 (cardiac β-receptor) | Heartbeat Frequency x ± sx (cardiac β-receptor; 0.5 mg/kg i.v. infusion) | Heartbeat Frequency x ± sx (cardiac β-receptor; 1.0 mg/kg i.v. infusion) | Heartbeat Frequency x ± sx (cardiac β-receptor; 2.0 mg/kg i.v. infusion) | Heartbeat Frequency x ± sx (cardiac β-receptor; 5.0 mg/kg i.v. infusion) | Heartbeat Frequency x ± sx (cardiac β-receptor; 10.0 mg/kg i.v. infusion) | Heartbeat Frequency x ± sx (cardiac β-receptor; 20.0 mg/kg i.v. infusion) | DE250 (cardiac β-receptor) | Heartbeat Frequency x ± sx (cardiac β-receptor; 0.01 mg/kg i.v. infusion) | Heartbeat Frequency x ± sx (cardiac β-receptor; 0.1 mg/kg i.v. infusion) | Heartbeat Frequency x ± sx (cardiac β-receptor; 0.25 mg/kg i.v. infusion) | Heartbeat Frequency x ± sx (cardiac β-receptor; 4.0 mg/kg i.v. infusion) | LD50 (in vivo) | Heartbeat Frequency x ± sx (cardiac β-receptor; 0.05 mg/kg i.v. infusion)
1 | CC(=O)Nc1ccc(OCC(O)CNC(C)C)cc1 (stereo not drawn) [Compound A, 4-(2-Hydroxy-3-isopropylamino-propoxy)-acetanilide, reference compound] | 28 | 307 ± 7 beats/min | 264 ± 9 beats/min | 250 ± 4 beats/min | 246 ± 7 beats/min | 217 ± 4 beats/min | 225 ± 6 beats/min | 2.5 mg/kg i.v. | – | – | – | – | – | –
2 | CC(C)NCC(O)COc1cccc2ccccc12 (stereo not drawn) [Compound B, 1-Isopropylamino-3-(1-naphthoxy)-2-propanol, reference compound] | – | 248 ± 6 beats/min | 210 ± 8 beats/min | – | – | – | – | 0.400 mg/kg i.v. | 342 ± 5 beats/min | 309 ± 9 beats/min | 259 ± 7 beats/min | 191 ± 6 beats/min | – | –
3 | CC(C)NCC(O)COc1cccc2nc[nH]c12 (stereo not drawn) [Compound I, 4-(3-Isopropylamino-2-hydroxy-propyloxy)-benzimidazole] | 422 | 228 ± 5 beats/min | 218 ± 11 beats/min | – | 219 ± 13 beats/min | – | – | 0.09 mg/kg i.v. | 300 ± 11 beats/min | 239 ± 6 beats/min | – | – | 38 mg/kg | 292 ± 17 beats/min
4 | CC(C)(C)NCC(O)COc1cccc2nc[nH]c12 (stereo not drawn) [Compound II, 4-(3-tert.-Butylamino-2-hydroxy-propyloxy)-benzimidazole] | 560 | – | 244 ± 9 beats/min | – | 273 ± 11 beats/min | – | – | 0.05 mg/kg i.v. | 286 ± 12 beats/min | 236 ± 6 beats/min | – | – | 28 mg/kg | –
5 | Cc1nc2cccc(OCC(O)CNC(C)C)c2[nH]1 (stereo not drawn) [Compound III, 2-Methyl-4-(3-isopropylamino-2-hydroxy-propyloxy)-benzimidazole] | 170 | – | 234 ± 11 beats/min | – | 219 ± 14 beats/min | – | – | 0.17 mg/kg i.v. | 303 ± 17 beats/min | 255 ± 9 beats/min | – | – | 29 mg/kg | 318 ± 11 beats/min
6 | Cc1nc2cccc(OCC(O)CNC(C)(C)C)c2[nH]1 (stereo not drawn) [Compound IV, 2-Methyl-4-(3-tert.-butylamino-2-hydroxy-propyloxy)-benzimidazole] | 425 | 224 ± 8 beats/min | 211 ± 5 beats/min | – | 232 ± 5 beats/min | – | – | 0.08 mg/kg i.v. | 289 ± 18 beats/min | 248 ± 7 beats/min | – | – | 34 mg/kg | 255 ± 7 beats/min
